Measurements published in patent US6566374B1, “Method of treating or preventing microbial infections with loperamide” (priority 1998, dated 2003).

Tests used:
Type in all cases: cell-based
[1] = system: S. mutans, S. sanguis, S. aureus, C. albicans, Methicillin resistant S. aureus, P. acnes; assay: Effective kill times of antimicrobial solutions; conditions: loperamide in 2.5% dimethyl sulphoxide; sampled at 30 seconds, 1, 2 and 5 minutes; data only in FIGS. 1-6
Protocol: A suitable broth culture of the test organism was prepared (see Table 3 below). Cultures were diluted (1:10) using a Ringer and Peptone solution. 30 ml volumes of loperamide made up in 2.5% dimethyl sulphoxide were prepared. The samples were then inoculated with 30 ml of the initial microorganism suspension, and at time intervals of 30 seconds, 1, 2 and 5 minutes, 1 ml of the sample was removed and added to 9 ml of Dey-Engley neutralizing broth. Two further serial dilutions were then prepared.
0.1 ml from the Dey-Engley broths and subsequent dilutions were spread plated and then incubated. See Table 3 below for the appropriate agar and incubation conditions.

[2] = system: Escherichia coli NCTC 8545; assay: Nominal Inhibitory Concentration (spiral plater); conditions: 24 hrs BA 37° C.
Protocol: (§1) A broth, appropriate to the microorganism to be tested (see Table 1 below), was inoculated aseptically from a pure plate culture and then incubated as indicated in Table 1.
(§2) Following the correct incubation, the liquid culture was diluted in a sterile saline solution to give approximately 10^5 to 10^6 CFU/ml. The suspension was serially diluted and spread plates were prepared for each dilution so as to obtain an accurate CFU/ml value.
(§3) The spiral plater was prepared by passing one cupule of IMS followed by one cupule of sterile water through the plater with the valve open and vacuum pump on. With the spiral plater cam on “Linear Deposition”, the suspension of micoorganism to be tested was placed in a new cupule. The suspension was taken up, ensuring that the glass tube was full, and the organisms were then deposited in an even spiral onto agar plates.
(§4) The depth of the agar was measured on the plates and this value recorded. Negative control plates with no added active were produced in triplicate.
(§5) The spiral plater was washed with one cupule of IMS and one cupule of sterile deionised water in-between the inoculation of different microbial samples. Once the microbial inocula had dried, the spiral plater was washed and the cam changed to “Gradient Deposition”. The antimicrobial solution was deposited in a spiral gradient directly on top of the dried inoculated spiral. Loperamide hydrochloride was used at concentrations of 1% and 0.3% made up in 50% dimethyl sulphoxide.
(§6) The spiral plater was washed with one cupule of IMS and one of sterile deionised water in-between different antimicrobial solutions. The solutions were left to dry before being incubated, at 37° C. for 24 hr, +/−6 hr or 48 hr +/−6 hr for anaerobes (see Table 1).
(§7) Following incubation, the control plates were checked to have grown to the end of the spiral inoculum. Digital calipers were used to measure the distance between the inoculation point and the point where confluent growth starts. The distance value termed the Radial Advance was used to determine the Deposition Factor (DF). The NIC can be calculated from the following formula:
(§8) NIC=Nominal Inhibitory Concentration (e.g. ppm)
(§9) SC=Stock concentration of antimicrobial (e.g. ppm)
(§10) ha=height of agar in plate (mm)

[3] = system: Sphingomonas paucimobilis NCTC 11030; assay: Nominal Inhibitory Concentration (spiral plater); conditions: 24 hrs BA 37° C.
Protocol: as §1, §2, §3, §4, §5, §6, §7, §8, §9, §10

[4] = system: Lactobacillus acidophillus NCTC 4505; assay: Nominal Inhibitory Concentration (spiral plater); conditions: 24 hrs BA 37° C.
Protocol: as §1, §2, §3, §4, §5, §6, §7, §8, §9, §10

[5] = system: Streptococcus sanguis NCTC 10904; assay: Nominal Inhibitory Concentration (spiral plater); conditions: 24 hrs BA 37° C.
Protocol: as §1, §2, §3, §4, §5, §6, §7, §8, §9, §10

[6] = system: Candida albicans NCYC 1363; assay: Nominal Inhibitory Concentration (spiral plater); conditions: 24 hrs SDA 37° C.
Protocol: as §1, §2, §3, §4, §5, §6, §7, §8, §9, §10

[7] = system: Pseudomonas cepacia ATCC 25416; assay: Nominal Inhibitory Concentration (spiral plater); conditions: 24 hrs BA 37° C.
Protocol: as §1, §2, §3, §4, §5, §6, §7, §8, §9, §10

[8] = system: Staphylococcus aureus ATCC 6538; assay: Nominal Inhibitory Concentration (spiral plater); conditions: 24 hrs TSA 37° C.
Protocol: as §1, §2, §3, §4, §5, §6, §7, §8, §9, §10

[9] = system: Pseudomonas aeruginosa ATCC 9027; assay: Nominal Inhibitory Concentration (spiral plater); conditions: 24 hrs BA 37° C.
Protocol: as §1, §2, §3, §4, §5, §6, §7, §8, §9, §10

[10] = system: Staphylococcus epidermidis ATCC 8853; assay: Nominal Inhibitory Concentration (spiral plater); conditions: 24 hrs TSA 37° C.
Protocol: as §1, §2, §3, §4, §5, §6, §7, §8, §9, §10

[11] = system: Propionibacterium acnes NCTC 737; assay: Nominal Inhibitory Concentration (spiral plater); conditions: 48 hrs BA 37° C. anaerobically, loperamide hydrochloride 1% and 0.3% in 50% dimethyl sulphoxide
Protocol: as §1, §2, §3, §4, §5, §6, §7, §8, §9, §10

[12] = system: Micrococcus luteus NCIB 8166; assay: Nominal Inhibitory Concentration (spiral plater); conditions: 24 hrs BA 37° C.
Protocol: as §1, §2, §3, §4, §5, §6, §7, §8, §9, §10

[13] = system: Pseudomonas stutzeri NCTC 10475; assay: Nominal Inhibitory Concentration (spiral plater); conditions: 24 hrs BA 37° C.
Protocol: as §1, §2, §3, §4, §5, §6, §7, §8, §9, §10

[14] = system: Bacillus subtilis ATCC 6633; assay: Nominal Inhibitory Concentration (spiral plater); conditions: 24 hrs BA 37° C.
Protocol: as §1, §2, §3, §4, §5, §6, §7, §8, §9, §10

[15] = system: Streptococcus oralis NCTC 11427; assay: Nominal Inhibitory Concentration (spiral plater); conditions: 24 hrs BA 37° C.
Protocol: as §1, §2, §3, §4, §5, §6, §7, §8, §9, §10

[16] = system: Streptococcus mutans NCTC 11061; assay: Nominal Inhibitory Concentration (spiral plater); conditions: 24 hrs BA 37° C.
Protocol: as §1, §2, §3, §4, §5, §6, §7, §8, §9, §10

[17] = system: Fusobacterium nucleatum NCTC 10562; assay: Nominal Inhibitory Concentration (spiral plater); conditions: 48 hrs BA 37° C. (anaerobically)
Protocol: as §1, §2, §3, §4, §5, §6, §7, §8, §9, §10

Structure (SMILES): CN(C)C(=O)C(CCN1CCC(O)(c2ccc(Cl)cc2)CC1)(c1ccccc1)c1ccccc1 [Loperamide, 4-(p-chlorophenyl)-4-hydroxy-N,N-dimethyl-α,α-diphenyl-1-piperidinebutyramide]
- bactericidal properties (kill time) [1]: good bactericidal properties
- NIC [2]: >165 ppm
- NIC [3]: 11 ppm
- NIC [4]: 18 ppm
- NIC [5]: 27 ppm
- NIC [6]: 39 ppm
- NIC [7]: 36 ppm
- NIC [8]: 34 ppm
- NIC [9]: >165 ppm
- NIC [10]: 33 ppm
- NIC [11]: 16 ppm
- NIC [12]: 9 ppm
- NIC [13]: 21 ppm
- NIC [14]: 9 ppm
- NIC [15]: 24 ppm
- NIC [16]: 30 ppm
- NIC [17]: 7 ppm
